# Reference: ChEMBL document CHEMBL5030560, “Berberine Molecular Recognition of the Parallel MYC G-Quadruplex in Solution” (J Med Chem, 2021)
# The source made the active and inactive calls. No cut-off for these calls is given here.
# Assays:
# Type in all cases: nucleic-acid assay
# [1] = test system: Quadruplex DNA; test: Binding affinity to human MycG4 DNA (unknown origin) assessed as compound-DNA complex at 2:1 ratio by mass spectroscopy
# [2] = test system: Quadruplex DNA; test: Binding affinity to human MycG4 DNA (unknown origin) assessed as compound-DNA complex at 3:1 ratio by 1D NMR analysis
# [3] = target: Quadruplex DNA; test: Binding affinity to human MycG4 DNA (unknown origin) assessed as apparent dissociation constant by fluorescence based binding assay; conditions: read-out: Kd(app)
compound,measurement,setting,value
COc1ccc2cc3[n+](cc2c1OC)CCc1cc2c(cc1-3)OCO2 [BERBERINE],Activity,[1],Active
same,Activity,[2],Active
same,Kd,[3],9.9 µM
